According to US9074009B2, “Stabilized MAML peptides and uses thereof” (Dana-Farber Cancer Institute, Inc., priority 2006, dated 2015):
Bridge positions count the residues as written; N and C are the ends. Square brackets hold non-standard residues; d marks the D form. Peptide text beside a SMILES is read from it. * marks the point of attachment. Biotin = O=C1N[C@H]2[C@H](CS[C@H]2CCCCC(=O)*)N1; S5 = C=CCCC[C@](C)(N)C(=O)O; βAla = NCCC(=O)O

Tests used:
[1] = molecular target: T1, ICN and CSL (Homo sapiens, UniProt P46531+Q06330); test: Immunoprecipitation from T-ALL (KOPTK1) cell lysates; format: binding; details: FIG. 19
T1 construct: endogenous in cells; host or cells: KOPTK1 (T-ALL) cell lysates
T1 sequence (P46531 1754-2555 limits assumed): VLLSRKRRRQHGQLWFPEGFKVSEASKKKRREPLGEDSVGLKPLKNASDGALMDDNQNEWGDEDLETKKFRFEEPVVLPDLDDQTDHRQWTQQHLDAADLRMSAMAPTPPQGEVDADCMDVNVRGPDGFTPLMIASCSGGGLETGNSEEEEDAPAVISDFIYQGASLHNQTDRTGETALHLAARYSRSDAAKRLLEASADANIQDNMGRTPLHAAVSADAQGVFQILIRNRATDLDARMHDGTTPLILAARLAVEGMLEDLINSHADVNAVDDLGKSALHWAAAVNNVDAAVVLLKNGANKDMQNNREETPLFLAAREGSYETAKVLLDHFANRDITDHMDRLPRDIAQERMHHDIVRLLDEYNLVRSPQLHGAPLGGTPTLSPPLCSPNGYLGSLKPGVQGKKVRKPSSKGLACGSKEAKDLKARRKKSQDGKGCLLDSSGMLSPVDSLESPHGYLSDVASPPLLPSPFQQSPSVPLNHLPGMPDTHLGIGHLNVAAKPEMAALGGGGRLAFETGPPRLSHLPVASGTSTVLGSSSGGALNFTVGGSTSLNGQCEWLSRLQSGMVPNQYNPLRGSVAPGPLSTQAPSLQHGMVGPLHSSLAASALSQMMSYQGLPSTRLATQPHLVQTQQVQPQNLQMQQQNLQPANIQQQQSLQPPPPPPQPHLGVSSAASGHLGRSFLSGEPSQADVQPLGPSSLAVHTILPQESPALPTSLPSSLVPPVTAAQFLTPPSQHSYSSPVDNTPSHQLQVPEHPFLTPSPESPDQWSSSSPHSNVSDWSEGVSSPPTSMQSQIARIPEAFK
T1 sequence (Q06330 whole entry): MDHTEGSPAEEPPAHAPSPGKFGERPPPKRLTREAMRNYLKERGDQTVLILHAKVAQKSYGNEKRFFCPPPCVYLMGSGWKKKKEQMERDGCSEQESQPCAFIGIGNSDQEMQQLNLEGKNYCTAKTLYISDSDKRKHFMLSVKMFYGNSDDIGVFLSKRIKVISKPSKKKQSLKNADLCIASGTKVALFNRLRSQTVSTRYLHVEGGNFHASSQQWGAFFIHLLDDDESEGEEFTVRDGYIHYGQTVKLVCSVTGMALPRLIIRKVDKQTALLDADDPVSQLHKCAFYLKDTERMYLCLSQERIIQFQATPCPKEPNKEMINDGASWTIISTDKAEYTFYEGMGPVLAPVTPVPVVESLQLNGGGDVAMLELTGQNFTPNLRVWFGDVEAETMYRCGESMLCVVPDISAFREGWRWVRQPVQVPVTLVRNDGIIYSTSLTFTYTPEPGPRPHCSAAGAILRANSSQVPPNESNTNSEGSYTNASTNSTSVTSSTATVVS

[2] = test system: CSL-responsive reporter; test: CSL-responsive reporter in transfected MOLT4 cells; format: cell-based; details: FIG. 12
Excerpt: MOLT4 cells transfected with a CSL-responsive reporter were used to test whether stapled SAHN11 can interfere with Notch-mediated activation of transcription.

[3] = test system: Notch complex mediated transcription; test: Beta-lactamase gene under CSL responsive promoter in T-ALL cells (MOLT4); format: cell-based; details: decrease similar to RNAi against Notch or lactamase, FIG. 22
Excerpt: T-ALL cells (MOLT4) harboring a beta-lactamase gene under the control of a CSL responsive promoter was used to study the effect of SAHN1 and SAHN11 on Notch complex mediated transcription.

[4] = test system: MOLT4 cells; test: Viability of MOLT4 cells; format: cell-based; details: FIG. 14 and 17
[5] = test system: TALL1 cells; test: Viability of TALL1 cells; format: cell-based; details: FIG. 18
[6] = Circular dichroism spectra, alpha helicity; format: physicochemical; details: cross-linked vs not cross-linked, FIG. 5
Excerpt: FIG. 4 is a schematic drawing and detailed structural depiction of a modified polypeptide having the sequence of REM-G1 (SAHN1).

[7] = molecular target: T2, ICN1 bound to immunoprecipitated MAML (Homo sapiens, UniProt P46531+Q06330); test: Competition for ICN1 bound to immunoprecipitated MAML in T-ALL cellular lysates; format: binding; details: FIG. 20 and 21
T2 construct: endogenous in cells
T2 sequence (P46531 1754-2555 limits assumed): as the sequence (P46531 1754-2555 limits assumed) above
T2 sequence (Q06330 whole entry): as the sequence (Q06330 whole entry) above

[8] = test system: Cells; format: cell-based
Experimental: Automated quantitative immunofluorescence was used to determine the intracellular distribution of fluorophore-labeled stapled alpha helices. Cells were incubated with FITC-conjugated peptides SAHN1, SAHN2, or SAHN6; or control. At 16 hours measurements of cellular fluorescence were taken using epifluorescence microscopy. The results of these studies are shown in FIG. 10 in which each circle represents an individual cell and each column represents a treatment condition.
Automated quantitative immunofluorescence was also used to determine the intracellular distribution of fluorophore-labeled stapled alpha helices. Cells were incubated with FITC-conjugated peptides SAHN1, or unstapled SAHN1.

[9] = test system: HES1; test: HES1 expression in T-ALL cells (MOLT4); format: cell-based; details: FIG. 23
Excerpt: (§1) The results of this analysis are show in FIG. 23.

[10] = test system: HEY1; test: HEY1 expression in T-ALL cells (MOLT4); format: cell-based; details: FIG. 23
Excerpt: as §1

[11] = test system: ALL-SIL cells; test: Viability of ALL-SIL cells; format: cell-based; details: FIG. 15
[12] = test system: KOPTK1 cells; format: cell-based
Excerpt: The results of this analysis are show in FIG. 25.

[13] = test system: gamma secretase resistant T-ALL cells (MOLT4); test: Apoptotic response in gamma secretase resistant T-ALL cells (MOLT4); format: cell-based; details: MOLT4, after 24 or 48 hours, FIG. 24
Excerpt: The results of this analysis are show in FIG. 24.

[14] = test system: neoplastic murine lymphocytes derived from transgenic mice harboring human Notch mutations

| SMILES | pull down of both ICN and CSL [1] | expression of the CSL-responsive reporter [2] | transcription from CSL responsive promoter (beta-lactamase) [3] | viability of MOLT4 cells [4] | viability of TALL1 cells [5] | alpha helical content (circular dichroism) [6] [%] | competing away ICN1 bound to immunoprecipitated MAML [7] | effect of stapling on intracellular passage [8] | intracellular passage (cellular fluorescence) [8] | expression of HES1 [9] | expression of HEY1 [10] | viability of ALL-SIL cells [11] | IC50 [12] [µM] | viability of KOPTK1 cells ([12]; FIG. 16) | apoptotic response [13] | cytotoxicity to neoplastic murine lymphocytes [14] |
| --- | --- | --- | --- | --- | --- | --- | --- | --- | --- | --- | --- | --- | --- | --- | --- | --- |
| CC[C@H](C)[C@H](NC(=O)[C@H](CCCNC(=N)N)NC(=O)[C@H](CCCNC(=N)N)NC(=O)CCNC(=O)[C@H](CCCCNC(=O)CCCC[C@@H]1SC[C@@H]2NC(=O)N[C@@H]21)NC(C)=O)C(=O)N[C@@H](CCC(=O)O)C(=O)N[C@@H](CC(C)C)C(=O)N[C@@H](CS)C(=O)N[C@@H](CCCNC(=N)N)C(=O)N[C@@H](CCCNC(=N)N)C(=O)N[C@@H](Cc1c[nH]cn1)C(=O)N[C@@H](Cc1c[nH]cn1)C(=O)N[C@@]1(C)CCCC=CCCC[C@@](C)(C(=O)N[C@@H](CCCNC(=N)N)C(=O)N[C@@H](Cc2ccc(O)cc2)C(=O)N[C@@H](CCC(=O)O)C(=O)N[C@@H](C)C(=O)N[C@H](C(N)=O)C(C)C)NC(=O)[C@H](CCC(=O)O)NC(=O)[C@H](CS)NC(=O)[C@H]([C@@H](C)O)NC1=O [SAHN11] (Ac-K(Biotin)[βAla]RRIELCRRHH[S5]TCE[S5]RYEAV-NH2; staple 13-17; N-terminus assumed) | can pull down both ICN and CSL | reduced expression of the CSL-responsive reporter in a dose-dependent manner | decreased transcription | reduced the viability of MOLT4 cells | reduced the viability of TALL1 cells |  |  |  |  |  |  |  |  |  |  |  |
| CC[C@H](C)[C@H](NC(=O)[C@H](CCCNC(=N)N)NC(=O)[C@H](CCCNC(=N)N)NC(=O)[C@H](CCCNC(=N)N)NC(=O)[C@H](CC(C)C)NC(=O)[C@H](CCCNC(=N)N)NC(=O)[C@H](CCC(=O)O)NC(=O)CCNC(C)=O)C(=O)N[C@@]1(C)CCCC=CCCC[C@@](C)(C(=O)N[C@@H](Cc2c[nH]cn2)C(=O)N[C@@H](Cc2c[nH]cn2)C(=O)N[C@@H](CO)C(=O)N[C@H](C(N)=O)[C@@H](C)O)NC(=O)[C@H](CCCNC(=N)N)NC(=O)[C@H](CS)NC(=O)[C@H](CC(C)C)NC1=O [SAHN1] (Ac-[βAla]ERLRRRI[S5]LCR[S5]HHST-NH2; staple 9-13) | can pull down both ICN and CSL |  | decreased transcription |  |  | 96 | can compete away ICN1 | stapling of the peptide did not, in this instance, appear to impact intracellular passage | exhibited significant intracellular passage | decrease expression of HES1 | decrease expression of HES1 and HEY1 | reduced the viability of ALL-SIL cells | 8 | reduced the viability of KOPTK1 cells | induces an apoptotic response | is cytotoxic to neoplastic murine lymphocytes |
